According to patent US20260028365A1 (BIOGEN MA INC., priority 2022, published 2026):
pIC50: −log10 of the molar value. Read-outs that look alike come from different tables or passages of the source.

How the values were obtained:
[1] = target: JH2 domain of human Tyk2 (Homo sapiens (Human), UniProt P29597); test: JH2 Biochemical Assay (TR-FRET probe displacement); format: binding
[2] = target: Tyk2 (Homo sapiens (Human), UniProt P29597); test: pSTAT4 Cell Assay (MSD, NK92 cells); format: cell-based
[3] = target: JAK1 (Homo sapiens (Human), UniProt P23458); test: pSTAT3 Cell Assay (MSD, TF1 cells); format: cell-based; conditions: MSD
Protocol: The inhibitory potency of compounds of the disclosure against the JAK1 kinase activity on STAT3 was evaluated using an MSD-platform plate-based assay format. TF1 cells natively expressing STAT3 and JAK1 were serum-starved to reduce background phosphorylation levels, then cells were treated with compounds of the disclosure for 1 hour with a 10-point four-fold dilution series starting at 10 μM. Cells were then stimulated with 30 ng/mL interleukin 6 (IL-6) for 15 minutes. Cells were lysed and pSTAT3 levels were quantitated using an MSD plate-based assay with anti-STAT3 antibodies. The data were normalized and the percent activity versus log concentration of compound was fitted with a 4-parameter logistic model to generate IC50 curves.

[4] = TR-FRET probe displacement, JH2 domain

Sequence of JAK1 (P23458 whole entry): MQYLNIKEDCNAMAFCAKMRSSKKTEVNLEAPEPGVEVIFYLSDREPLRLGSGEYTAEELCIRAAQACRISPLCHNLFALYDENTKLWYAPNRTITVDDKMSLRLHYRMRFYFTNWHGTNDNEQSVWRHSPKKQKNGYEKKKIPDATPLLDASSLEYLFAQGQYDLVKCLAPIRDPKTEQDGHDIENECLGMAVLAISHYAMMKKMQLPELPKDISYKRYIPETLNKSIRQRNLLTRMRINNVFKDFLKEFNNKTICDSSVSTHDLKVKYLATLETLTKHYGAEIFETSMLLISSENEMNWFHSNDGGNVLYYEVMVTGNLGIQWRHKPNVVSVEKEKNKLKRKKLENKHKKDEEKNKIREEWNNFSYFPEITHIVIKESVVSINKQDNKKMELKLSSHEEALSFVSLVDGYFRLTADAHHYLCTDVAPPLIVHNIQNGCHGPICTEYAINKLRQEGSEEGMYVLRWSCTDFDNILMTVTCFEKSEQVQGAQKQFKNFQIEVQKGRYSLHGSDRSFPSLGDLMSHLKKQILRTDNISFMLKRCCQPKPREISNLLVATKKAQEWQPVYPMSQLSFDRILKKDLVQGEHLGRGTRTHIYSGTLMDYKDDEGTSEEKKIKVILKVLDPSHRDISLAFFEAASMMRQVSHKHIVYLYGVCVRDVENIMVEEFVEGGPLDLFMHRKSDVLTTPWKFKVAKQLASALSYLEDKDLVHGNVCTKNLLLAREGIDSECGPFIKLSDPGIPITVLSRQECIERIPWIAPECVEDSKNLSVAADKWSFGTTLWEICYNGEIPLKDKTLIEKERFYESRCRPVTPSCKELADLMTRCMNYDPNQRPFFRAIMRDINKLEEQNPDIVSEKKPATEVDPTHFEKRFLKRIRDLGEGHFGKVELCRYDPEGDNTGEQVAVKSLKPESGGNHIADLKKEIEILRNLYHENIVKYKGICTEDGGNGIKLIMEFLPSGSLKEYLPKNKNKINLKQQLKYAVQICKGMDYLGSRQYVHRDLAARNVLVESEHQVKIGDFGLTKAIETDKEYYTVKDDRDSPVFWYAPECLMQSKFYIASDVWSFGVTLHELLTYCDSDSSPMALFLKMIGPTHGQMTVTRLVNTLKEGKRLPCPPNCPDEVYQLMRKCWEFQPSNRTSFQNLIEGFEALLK
Sequence of Tyk2 (P29597 whole entry): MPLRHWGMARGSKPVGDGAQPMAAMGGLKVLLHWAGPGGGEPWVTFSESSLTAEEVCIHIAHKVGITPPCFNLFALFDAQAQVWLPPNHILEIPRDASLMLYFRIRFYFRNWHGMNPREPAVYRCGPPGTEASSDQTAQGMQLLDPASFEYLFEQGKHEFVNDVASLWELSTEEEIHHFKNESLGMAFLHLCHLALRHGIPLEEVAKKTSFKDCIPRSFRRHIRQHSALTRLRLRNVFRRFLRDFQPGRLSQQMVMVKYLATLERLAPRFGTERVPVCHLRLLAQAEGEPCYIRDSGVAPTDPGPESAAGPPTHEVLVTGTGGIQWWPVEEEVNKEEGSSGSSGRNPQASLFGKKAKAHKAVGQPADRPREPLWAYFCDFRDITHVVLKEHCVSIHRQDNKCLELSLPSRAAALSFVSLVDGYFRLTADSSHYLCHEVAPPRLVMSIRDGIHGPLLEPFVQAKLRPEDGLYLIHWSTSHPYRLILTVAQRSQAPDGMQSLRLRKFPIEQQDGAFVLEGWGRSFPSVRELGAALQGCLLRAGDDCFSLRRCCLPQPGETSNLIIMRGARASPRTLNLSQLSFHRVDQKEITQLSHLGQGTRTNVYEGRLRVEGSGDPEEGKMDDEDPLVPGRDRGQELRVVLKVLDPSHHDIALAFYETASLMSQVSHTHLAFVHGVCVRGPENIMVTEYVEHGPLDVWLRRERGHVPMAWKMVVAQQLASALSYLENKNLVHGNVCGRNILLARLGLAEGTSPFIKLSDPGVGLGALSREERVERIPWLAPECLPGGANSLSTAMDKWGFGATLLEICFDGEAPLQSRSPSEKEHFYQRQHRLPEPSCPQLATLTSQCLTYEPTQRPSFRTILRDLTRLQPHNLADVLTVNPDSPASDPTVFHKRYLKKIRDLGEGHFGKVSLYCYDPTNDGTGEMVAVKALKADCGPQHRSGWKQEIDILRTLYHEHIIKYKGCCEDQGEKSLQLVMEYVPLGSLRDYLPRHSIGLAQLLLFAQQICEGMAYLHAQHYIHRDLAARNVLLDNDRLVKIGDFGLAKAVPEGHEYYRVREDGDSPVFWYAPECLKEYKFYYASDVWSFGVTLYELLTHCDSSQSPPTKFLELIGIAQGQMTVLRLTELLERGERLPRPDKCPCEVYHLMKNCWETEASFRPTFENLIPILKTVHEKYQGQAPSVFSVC
Sequence of JH2 domain of human Tyk2 (P29597 575-876): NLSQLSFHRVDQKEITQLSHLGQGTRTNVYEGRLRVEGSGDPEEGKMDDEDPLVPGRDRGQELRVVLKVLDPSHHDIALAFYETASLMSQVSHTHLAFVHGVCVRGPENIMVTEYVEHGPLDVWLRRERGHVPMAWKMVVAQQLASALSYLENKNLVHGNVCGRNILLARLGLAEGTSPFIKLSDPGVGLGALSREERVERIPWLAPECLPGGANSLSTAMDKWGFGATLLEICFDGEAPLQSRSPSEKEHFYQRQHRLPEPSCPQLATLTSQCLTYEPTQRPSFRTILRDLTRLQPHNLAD

| Compound | pIC50 [1, 4] | pIC50 [2] | also measured |
| --- | --- | --- | --- |
| CC(=O)Nc1cc(Nc2cc(C)nc(C(C)(F)F)n2)c(-c2cccc([C@H]3CN(C)CCO3)n2)cn1 (single isomer, unassigned) [Example 642, (R)-N-(4′-((2-(1,1-difluoroethyl)-6-methylpyrimidin-4-yl)amino)-6-(4-methylmorpholin-2-yl)-[2,3′-bipyridin]-6′-yl)acetamide or (S)-N-(4′-((2-(1,1-difluoroethyl)-6-methylpyrimidin-4-yl)amino)-6-(4-methylmorpholin-2-yl)-[2,3′-bipyridin]-6′-yl)acetamide] |  |  | pIC50 ([1]; JH2 domain of human Tyk2, TR-FRET probe displacement): ≥ 8.00; pIC50 ([2]; MSD): ≥ 8.00; pIC50 ([3]; IL-6 stimulated): ≤ 6.00 |
| CC(=O)Nc1cc(Nc2cc(C)nc(C(C)(F)F)n2)c(C(F)(F)C2CC2)cn1 [Example 153, N-(5-(cyclopropyldifluoromethyl)-4-((2-(1,1-difluoroethyl)-6-methylpyrimidin-4-yl)amino)pyridin-2-yl)acetamide] |  |  | pIC50 ([1]; TR-FRET probe displacement, JH2 domain of human Tyk2): ≥ 8.00; pIC50 ([2]; MSD): ≥ 8.00; pIC50 ([3]; IL-6 stimulation): ≤ 6.00 |
| CC(=O)Nc1cc(Nc2cc(C)nc(C(C)(F)F)n2)c(-c2ccc(N3CCN(C)CC3)cn2)cn1 [Example 651, N-(4′-((2-(1,1-difluoroethyl)-6-methylpyrimidin-4-yl)amino)-5-(4-methylpiperazin-1-yl)-[2,3′-bipyridin]-6′-yl)acetamide] |  |  | pIC50 ([2]; MSD): ≥ 8.00; pIC50 ([3]; IL-6 stimulated): ≤ 6.00 |
| CC(=O)Nc1cc(Nc2ccnc(C(C)(F)F)n2)c(-c2cnc(N3CC4(CCOC4)C3)cn2)cn1 [Example 872, N-(5-(5-(6-oxa-2-azaspiro[3.4]octan-2-yl)pyrazin-2-yl)-4-((2-(1,1-difluoroethyl)pyrimidin-4-yl)amino)pyridin-2-yl)acetamide] | ≥ 8.00 | 7.00 to 8.00 |  |
| COC1(C)CN(c2ccc(-c3cnc(NC(C)=O)cc3Nc3ccnc(C(C)(F)F)n3)nn2)C1 [Example 874, N-(4-((2-(1,1-difluoroethyl)pyrimidin-4-yl)amino)-5-(6-(3-methoxy-3-methylazetidin-1-yl)pyridazin-3-yl)pyridin-2-yl)acetamide] | ≥ 8.00 | ≥ 8.00 |  |
| CC(=O)Nc1cc(Nc2ccnc(C(C)(F)F)n2)c(-c2ccc(N3C[C@@H]4C[C@H]3CO4)nn2)cn1 [Example 876, N-(5-(6-((1S,4S)-2-oxa-5-azabicyclo[2.2.1]heptan-5-yl)pyridazin-3-yl)-4-((2-(1,1-difluoroethyl)pyrimidin-4-yl)amino)pyridin-2-yl)acetamide] | ≥ 8.00 | ≥ 8.00 |  |
| CC(=O)Nc1cc(Nc2ccnc(C(C)(F)F)n2)c(-c2ccc(N3CC4(CCOC4)C3)nn2)cn1 [Example 877, N-(5-(6-(6-oxa-2-azaspiro[3.4]octan-2-yl)pyridazin-3-yl)-4-((2-(1,1-difluoroethyl)pyrimidin-4-yl)amino)pyridin-2-yl)acetamide] | ≥ 8.00 | ≥ 8.00 |  |
| CC(=O)Nc1cc(Nc2ccnc(C(C)(F)F)n2)c(-c2ccc(CN3CCCC3)cn2)cn1 [Example 878, N-(4′-((2-(1,1-difluoroethyl)pyrimidin-4-yl)amino)-5-(pyrrolidin-1-ylmethyl)-[2,3′-bipyridin]-6′-yl)acetamide] | ≥ 8.00 | ≥ 8.00 |  |
| COCCN(C)Cc1ccc(-c2cnc(NC(C)=O)cc2Nc2ccnc(C(C)(F)F)n2)nc1 [Example 879, N-(4′-((2-(1,1-difluoroethyl)pyrimidin-4-yl)amino)-5-(((2-methoxyethyl)(methyl)amino)methyl)-[2,3′-bipyridin]-6′-yl)acetamide] | ≥ 8.00 | ≥ 8.00 |  |
| CC(=O)Nc1cc(Nc2ccnc(C(C)(F)F)n2)c(-c2ccc(CN3CCOC[C@H]3C)cn2)cn1 [Example 880, (R)-N-(4′-((2-(1,1-difluoroethyl)pyrimidin-4-yl)amino)-5-((3-methylmorpholino)methyl)-[2,3′-bipyridin]-6′-yl)acetamide] | ≥ 8.00 | ≥ 8.00 |  |
| COC1CCN(Cc2ccc(-c3cnc(NC(C)=O)cc3Nc3ccnc(C(C)(F)F)n3)nc2)C1 (stereo not drawn) [Example 881, N-(4′-((2-(1,1-difluoroethyl)pyrimidin-4-yl)amino)-5-((3-methoxypyrrolidin-1-yl)methyl)-[2,3′-bipyridin]-6′-yl)acetamide] | ≥ 8.00 | ≥ 8.00 |  |
| COC1(C)CN(Cc2ccc(-c3cnc(NC(C)=O)cc3Nc3ccnc(C(C)(F)F)n3)nc2)C1 [Example 882, N-(4′-((2-(1,1-difluoroethyl)pyrimidin-4-yl)amino)-5-((3-methoxy-3-methylazetidin-1-yl)methyl)-[2,3′-bipyridin]-6′-yl)acetamide] | ≥ 8.00 | ≥ 8.00 |  |
| CC(=O)Nc1cc(Nc2ccnc(C(C)(F)F)n2)c(-c2ccc(CNC3CCOCC3)cn2)cn1 [Example 883] | ≥ 8.00 | ≥ 8.00 |  |
| CC(=O)Nc1cc(Nc2ccnc(C(C)(F)F)n2)c(-c2ccc(CN3C[C@@H]4C[C@H]3CO4)cn2)cn1 [Example 885, N-(5-(((1S,4S)-2-oxa-5-azabicyclo[2.2.1]heptan-5-yl)methyl)-4′-((2-(1,1-difluoroethyl)pyrimidin-4-yl)amino)-[2,3′-bipyridin]-6′-yl)acetamide] | ≥ 8.00 | ≥ 8.00 |  |
| CC(=O)Nc1cc(Nc2ccnc(C(C)(F)F)n2)c(-c2ccc(CN3C[C@H]4C[C@@H]3CO4)cn2)cn1 [Example 886, N-(5-(((1R,4R)-2-oxa-5-azabicyclo[2.2.1]heptan-5-yl)methyl)-4′-((2-(1,1-difluoroethyl)pyrimidin-4-yl)amino)-[2,3′-bipyridin]-6′-yl)acetamide] | ≥ 8.00 | ≥ 8.00 |  |
| CC(=O)Nc1cc(Nc2ccnc(C(C)(F)F)n2)c(-c2cnc(N3C[C@H]4C[C@@H](C3)O4)cn2)cn1 [Example 887, N-(5-(5-((1R,5S)-6-oxa-3-azabicyclo[3.1.1]heptan-3-yl)pyrazin-2-yl)-4-((2-(1,1-difluoroethyl)pyrimidin-4-yl)amino)pyridin-2-yl)acetamide] | ≥ 8.00 | 7.00 to 8.00 |  |
| CC(=O)Nc1cc(Nc2ccnc(C(C)(F)F)n2)c(-c2cnc(N3CC4(COC4)C3)cn2)cn1 [Example 888, N-(5-(5-(2-oxa-6-azaspiro[3.3]heptan-6-yl)pyrazin-2-yl)-4-((2-(1,1-difluoroethyl)pyrimidin-4-yl)amino)pyridin-2-yl)acetamide] | ≥ 8.00 | 6.00 to 7.00 |  |
| CC(=O)Nc1cc(Nc2ccnc(C(C)(F)F)n2)c(-c2ccc(CN3CC4(CCOC4)C3)cn2)cn1 [Example 889, N-(5-((6-oxa-2-azaspiro[3.4]octan-2-yl)methyl)-4′-((2-(1,1-difluoroethyl)pyrimidin-4-yl)amino)-[2,3′-bipyridin]-6′-yl)acetamide] | ≥ 8.00 | ≥ 8.00 |  |
| CC(=O)Nc1cc(Nc2ccnc(C(C)(F)F)n2)c(-c2ccc(N3CCC4(COC4)C3)nn2)cn1 [Example 890, N-(5-(6-(2-oxa-6-azaspiro[3.4]octan-6-yl)pyridazin-3-yl)-4-((2-(1,1-difluoroethyl)pyrimidin-4-yl)amino)pyridin-2-yl)acetamide] | ≥ 8.00 | ≥ 8.00 |  |
| CCc1cc(Nc2cc(NC(C)=O)ncc2-c2cnc(CN3CCCC3)cn2)nc(C(C)(F)F)n1 [Example 893, N-(4-((2-(1,1-difluoroethyl)-6-ethylpyrimidin-4-yl)amino)-5-(5-(pyrrolidin-1-ylmethyl)pyrazin-2-yl)pyridin-2-yl)acetamide] | ≥ 8.00 | ≥ 8.00 |  |
| CCc1cc(Nc2cc(NC(C)=O)ncc2-c2cnc(CN3C[C@@H]4C[C@H]3CO4)cn2)nc(C(C)(F)F)n1 [Example 894, N-(5-(5-(((1S,4S)-2-oxa-5-azabicyclo[2.2.1]heptan-5-yl)methyl)pyrazin-2-yl)-4-((2-(1,1-difluoroethyl)-6-ethylpyrimidin-4-yl)amino)pyridin-2-yl)acetamide] | ≥ 8.00 | ≥ 8.00 |  |
| CCc1cc(Nc2cc(NC(C)=O)ncc2-c2cnc(CN(C)C)cn2)nc(C(C)(F)F)n1 [Example 895, N-(4-((2-(1,1-difluoroethyl)-6-ethylpyrimidin-4-yl)amino)-5-(5-((dimethylamino)methyl)pyrazin-2-yl)pyridin-2-yl)acetamide] | ≥ 8.00 | ≥ 8.00 |  |
| COC(C)(C)c1cnc(-c2cnc(NC(C)=O)cc2Nc2ccnc(C(C)(F)F)n2)cn1 [Example 896, N-(4-((2-(1,1-difluoroethyl)pyrimidin-4-yl)amino)-5-(5-(2-methoxypropan-2-yl)pyrazin-2-yl)pyridin-2-yl)acetamide] | ≥ 8.00 | 7.00 to 8.00 |  |
| CCc1cc(Nc2cc(NC(C)=O)ncc2-c2cnc(C3COCCO3)cn2)nc(C(C)(F)F)n1 (stereo not drawn) [Example 898, N-(5-(5-(1,4-dioxan-2-yl)pyrazin-2-yl)-4-((2-(1,1-difluoroethyl)-6-ethylpyrimidin-4-yl)amino)pyridin-2-yl)acetamide] | ≥ 8.00 | ≥ 8.00 |  |
| CCc1cc(Nc2cc(NC(C)=O)ncc2-c2cnc(CN3C[C@H]4C[C@@H](C3)O4)cn2)nc(C(C)(F)F)n1 [Example 900, N-(5-(5-(((1R,5S)-6-oxa-3-azabicyclo[3.1.1]heptan-3-yl)methyl)pyrazin-2-yl)-4-((2-(1,1-difluoroethyl)-6-ethylpyrimidin-4-yl)amino)pyridin-2-yl)acetamide] | ≥ 8.00 | ≥ 8.00 |  |
| CCc1cc(Nc2cc(NC(=O)NC)ncc2-c2cnccn2)nc(C(C)(F)F)n1 [Example 919, 1-(4-((2-(1,1-difluoroethyl)-6-ethylpyrimidin-4-yl)amino)-5-(pyrazin-2-yl)pyridin-2-yl)-3-methylurea] | ≥ 8.00 | 7.00 to 8.00 |  |
